Read-outs that look alike come from different tables or passages of the source.
Experiments:
[1] = molecular target: 5HT2B serotonergic receptor (Homo sapiens, UniProt P41595); assay: PDSP radioligand binding, 5HT2B; conditions: for Ki: full concentration-response curves, n = 3-6 unless noted; for inhibition at 10 µM: read-out: % inhibition at 10 µM
α1A adrenergic receptor = molecular target: T1, α1A adrenergic receptor (Homo sapiens, UniProt P35348); assay: PDSP radioligand binding, α1A; conditions: read-out: % inhibition at 10 µM
T1 sequence (P35348 1-466): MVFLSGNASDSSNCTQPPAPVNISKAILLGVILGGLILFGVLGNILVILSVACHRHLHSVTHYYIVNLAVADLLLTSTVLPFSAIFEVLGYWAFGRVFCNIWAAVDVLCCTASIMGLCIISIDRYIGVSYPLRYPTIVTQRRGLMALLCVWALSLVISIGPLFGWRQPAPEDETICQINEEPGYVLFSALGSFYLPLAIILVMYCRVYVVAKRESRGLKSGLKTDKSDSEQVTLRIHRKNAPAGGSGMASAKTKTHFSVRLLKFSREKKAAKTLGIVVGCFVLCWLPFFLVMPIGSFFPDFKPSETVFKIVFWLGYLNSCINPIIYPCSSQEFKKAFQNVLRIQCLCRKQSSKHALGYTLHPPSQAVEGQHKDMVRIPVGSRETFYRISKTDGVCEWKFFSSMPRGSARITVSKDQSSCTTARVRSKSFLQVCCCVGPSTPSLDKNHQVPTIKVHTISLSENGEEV

β1 adrenergic receptor = β1 adrenergic receptor (Homo sapiens, UniProt P08588); assay: PDSP radioligand binding, β1; conditions: read-out: % inhibition at 10 µM
[2] = molecular target: T2, M1 muscarinic acetylcholine receptor (Homo sapiens, UniProt P11229); assay: PDSP radioligand binding, M1; conditions: read-out: % inhibition at 10 µM
T2 sequence (P11229 1-460): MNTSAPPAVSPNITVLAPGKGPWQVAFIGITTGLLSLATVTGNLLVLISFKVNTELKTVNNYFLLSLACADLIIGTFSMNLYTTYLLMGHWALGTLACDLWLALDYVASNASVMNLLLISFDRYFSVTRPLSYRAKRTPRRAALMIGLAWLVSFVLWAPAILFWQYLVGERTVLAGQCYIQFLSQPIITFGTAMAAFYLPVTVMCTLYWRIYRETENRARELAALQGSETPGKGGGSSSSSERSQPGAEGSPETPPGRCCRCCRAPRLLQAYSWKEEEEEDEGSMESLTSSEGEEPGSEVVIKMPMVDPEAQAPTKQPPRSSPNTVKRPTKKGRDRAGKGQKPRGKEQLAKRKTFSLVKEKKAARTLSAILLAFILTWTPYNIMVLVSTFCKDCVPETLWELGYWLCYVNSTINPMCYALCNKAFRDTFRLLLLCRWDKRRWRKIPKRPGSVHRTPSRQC

[3] = molecular target: T3, M2 muscarinic acetylcholine receptor (Homo sapiens, UniProt P08172); assay: PDSP radioligand binding, M2; conditions: read-out: % inhibition at 10 µM
T3 sequence (P08172 1-466): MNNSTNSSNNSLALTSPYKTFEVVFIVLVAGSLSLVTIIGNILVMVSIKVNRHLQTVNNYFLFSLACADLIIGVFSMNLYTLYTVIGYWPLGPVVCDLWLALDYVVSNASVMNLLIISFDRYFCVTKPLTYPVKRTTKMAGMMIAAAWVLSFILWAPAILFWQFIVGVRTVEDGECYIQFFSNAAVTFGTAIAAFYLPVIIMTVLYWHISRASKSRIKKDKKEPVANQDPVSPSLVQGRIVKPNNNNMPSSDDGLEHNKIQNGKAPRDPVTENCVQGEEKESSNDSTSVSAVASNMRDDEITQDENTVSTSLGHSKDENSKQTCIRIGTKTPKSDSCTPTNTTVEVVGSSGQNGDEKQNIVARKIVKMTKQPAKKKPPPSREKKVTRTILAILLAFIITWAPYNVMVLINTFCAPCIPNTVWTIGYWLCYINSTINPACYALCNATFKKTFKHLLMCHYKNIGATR

[4] = molecular target: T4, M5 muscarinic acetylcholine receptor (Homo sapiens, UniProt P08912); assay: PDSP radioligand binding, M5; conditions: read-out: % inhibition at 10 µM
T4 sequence (P08912 1-532): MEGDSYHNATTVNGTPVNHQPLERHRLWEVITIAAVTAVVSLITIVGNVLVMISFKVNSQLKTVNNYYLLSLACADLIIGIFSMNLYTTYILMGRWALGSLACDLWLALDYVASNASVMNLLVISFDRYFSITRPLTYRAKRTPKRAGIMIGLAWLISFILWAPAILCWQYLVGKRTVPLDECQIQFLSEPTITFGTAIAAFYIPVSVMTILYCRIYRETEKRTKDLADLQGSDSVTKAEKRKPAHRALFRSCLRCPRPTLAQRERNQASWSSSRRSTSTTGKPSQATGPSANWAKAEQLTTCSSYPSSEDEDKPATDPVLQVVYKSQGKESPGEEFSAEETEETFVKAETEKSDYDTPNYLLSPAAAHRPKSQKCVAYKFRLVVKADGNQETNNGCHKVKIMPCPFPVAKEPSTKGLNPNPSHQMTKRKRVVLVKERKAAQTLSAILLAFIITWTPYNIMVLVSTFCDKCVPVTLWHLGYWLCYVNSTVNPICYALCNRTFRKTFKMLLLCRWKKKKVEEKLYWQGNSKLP

[5] = molecular target: H1 histaminergic receptor (Homo sapiens, UniProt P35367); assay: PDSP radioligand binding, H1; conditions: read-out: % inhibition at 10 µM
D1 dopaminergic receptor = D1 dopaminergic receptor (Homo sapiens, UniProt P21728); assay: PDSP radioligand binding, D1; conditions: read-out: % inhibition at 10 µM
D4 dopaminergic receptor = molecular target: T5, D4 dopaminergic receptor (Homo sapiens, UniProt P21917); assay: PDSP radioligand binding, D4; conditions: read-out: % inhibition at 10 µM
T5 sequence (P21917 1-419): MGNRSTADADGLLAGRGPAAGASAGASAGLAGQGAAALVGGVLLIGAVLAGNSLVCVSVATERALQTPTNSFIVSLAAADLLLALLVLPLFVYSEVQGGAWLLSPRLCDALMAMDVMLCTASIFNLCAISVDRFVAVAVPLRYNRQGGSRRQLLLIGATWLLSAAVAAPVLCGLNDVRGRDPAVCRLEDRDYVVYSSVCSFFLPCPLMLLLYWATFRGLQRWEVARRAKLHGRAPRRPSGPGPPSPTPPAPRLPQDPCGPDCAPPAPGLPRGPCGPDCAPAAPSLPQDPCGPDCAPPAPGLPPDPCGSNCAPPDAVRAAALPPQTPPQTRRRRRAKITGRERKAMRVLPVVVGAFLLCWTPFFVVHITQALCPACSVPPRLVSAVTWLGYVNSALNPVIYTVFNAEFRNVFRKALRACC

Sequence of H1 histaminergic receptor (P35367 whole entry): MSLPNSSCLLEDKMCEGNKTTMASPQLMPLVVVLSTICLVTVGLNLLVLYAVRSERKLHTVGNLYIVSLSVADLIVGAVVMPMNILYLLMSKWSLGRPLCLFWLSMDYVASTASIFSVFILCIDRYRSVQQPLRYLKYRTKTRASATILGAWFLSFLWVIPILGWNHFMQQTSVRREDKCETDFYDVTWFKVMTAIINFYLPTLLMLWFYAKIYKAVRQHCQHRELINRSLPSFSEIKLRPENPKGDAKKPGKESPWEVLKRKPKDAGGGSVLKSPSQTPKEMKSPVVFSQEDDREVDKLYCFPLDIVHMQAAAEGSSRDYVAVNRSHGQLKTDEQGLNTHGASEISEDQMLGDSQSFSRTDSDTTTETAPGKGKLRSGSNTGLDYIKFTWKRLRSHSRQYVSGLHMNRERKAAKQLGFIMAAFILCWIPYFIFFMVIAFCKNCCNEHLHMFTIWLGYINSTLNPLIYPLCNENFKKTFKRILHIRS
Sequence of 5HT2B serotonergic receptor (P41595 whole entry): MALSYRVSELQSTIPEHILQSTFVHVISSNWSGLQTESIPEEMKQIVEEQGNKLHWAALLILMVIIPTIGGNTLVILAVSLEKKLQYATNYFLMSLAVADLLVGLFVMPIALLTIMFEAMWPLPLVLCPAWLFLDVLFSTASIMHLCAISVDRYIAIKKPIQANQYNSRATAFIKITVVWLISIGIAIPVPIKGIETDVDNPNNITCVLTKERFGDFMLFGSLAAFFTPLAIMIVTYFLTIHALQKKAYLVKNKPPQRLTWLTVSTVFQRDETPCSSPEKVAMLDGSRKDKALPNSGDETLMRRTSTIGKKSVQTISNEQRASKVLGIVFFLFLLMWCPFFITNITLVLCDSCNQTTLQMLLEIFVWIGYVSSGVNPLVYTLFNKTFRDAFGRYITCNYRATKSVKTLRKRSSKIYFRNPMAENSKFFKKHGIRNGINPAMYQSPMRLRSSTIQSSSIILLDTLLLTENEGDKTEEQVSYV
Sequence of D1 dopaminergic receptor (P21728 whole entry): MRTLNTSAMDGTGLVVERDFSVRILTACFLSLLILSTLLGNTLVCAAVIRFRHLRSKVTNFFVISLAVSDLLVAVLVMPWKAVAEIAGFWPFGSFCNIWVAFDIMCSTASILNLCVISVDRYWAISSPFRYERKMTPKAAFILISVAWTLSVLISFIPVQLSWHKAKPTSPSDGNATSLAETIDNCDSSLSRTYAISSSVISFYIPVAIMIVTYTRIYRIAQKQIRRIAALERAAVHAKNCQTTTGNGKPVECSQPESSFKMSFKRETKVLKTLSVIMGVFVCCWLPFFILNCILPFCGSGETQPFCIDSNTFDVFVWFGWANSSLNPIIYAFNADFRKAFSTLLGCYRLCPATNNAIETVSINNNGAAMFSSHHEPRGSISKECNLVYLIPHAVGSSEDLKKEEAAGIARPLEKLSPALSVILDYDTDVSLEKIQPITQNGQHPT
Sequence of β1 adrenergic receptor (P08588 whole entry, species assumed): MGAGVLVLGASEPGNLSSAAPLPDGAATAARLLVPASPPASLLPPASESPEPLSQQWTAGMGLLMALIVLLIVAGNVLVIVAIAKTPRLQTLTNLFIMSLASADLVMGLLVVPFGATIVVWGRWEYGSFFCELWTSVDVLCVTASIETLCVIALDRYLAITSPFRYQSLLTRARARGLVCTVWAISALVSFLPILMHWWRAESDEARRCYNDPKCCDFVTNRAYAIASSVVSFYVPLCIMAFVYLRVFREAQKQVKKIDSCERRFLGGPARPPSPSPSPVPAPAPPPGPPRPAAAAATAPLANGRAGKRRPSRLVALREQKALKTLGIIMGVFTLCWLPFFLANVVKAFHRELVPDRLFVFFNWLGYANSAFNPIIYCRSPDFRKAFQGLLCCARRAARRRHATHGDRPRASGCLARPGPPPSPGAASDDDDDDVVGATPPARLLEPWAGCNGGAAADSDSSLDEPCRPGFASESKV

SMILES | Ki [1] [nM] | inhibition at 10 µM [1] [%] | inhibition at 10 µM (α1A adrenergic receptor) [%] | inhibition at 10 µM (β1 adrenergic receptor) [%] | inhibition at 10 µM [2] [%] | inhibition at 10 µM [3] [%] | inhibition at 10 µM [4] [%] | inhibition at 10 µM [5] [%] | inhibition at 10 µM (D1 dopaminergic receptor) [%] | inhibition at 10 µM (D4 dopaminergic receptor) [%] | inhibition at 10 µM ([1]; single concentration 10 µM) [%] | inhibition at 10 µM (α1A adrenergic receptor; single concentration 10 µM) [%] | inhibition at 10 µM (β1 adrenergic receptor; single concentration 10 µM) [%] | inhibition at 10 µM ([2]; single concentration 10 µM) [%] | inhibition at 10 µM ([3]; single concentration 10 µM) [%] | inhibition at 10 µM ([4]; single concentration 10 µM) [%] | inhibition at 10 µM ([5]; single concentration 10 µM) [%] | inhibition at 10 µM (D1 dopaminergic receptor; single concentration 10 µM) [%] | inhibition at 10 µM (D4 dopaminergic receptor; single concentration 10 µM) [%]
CNC(=O)[C@@]12C[C@@H]1[C@@H](n1cnc3c(NCc4cccc(Cl)c4)nc(C#Cc4ccc(F)c(F)c4)nc31)[C@H](O)[C@@H]2O [Compound 1] | 2580 ± 220 | 34 | 10 | 0 | 9 | 22 | 2 | 0 | 13 | 0 | – | – | – | – | – | – | – | – | –
CNC(=O)[C@@]12C[C@@H]1[C@@H](n1cnc3c(NCc4cccc(Cl)c4)nc(C#Cc4ccc(F)cc4)nc31)[C@H](O)[C@@H]2O [Compound 2] | 2130 ± 270 | – | – | – | – | – | – | – | – | – | 56 | 7 | 0 | 12 | 0 | 9 | 0 | 19 | 0
CNC(=O)[C@@]12C[C@@H]1[C@@H](n1cnc3c(NCc4cccc(Cl)c4)nc(C#Cc4ccccc4Cl)nc31)[C@H](O)[C@@H]2O [Compound 3] | 3650 ± 1050 | – | – | – | – | – | – | – | – | – | 55 | 16 | 2 | 0 | 0 | 9 | 21 | 27 | 1
CNC(=O)[C@@]12C[C@@H]1[C@@H](n1cnc3c(NCc4cccc(Cl)c4)nc(Cl)nc31)[C@H](O)[C@@H]2O [Compound 4] | 75 ± 7 | – | – | – | – | – | – | – | – | – | 95 | 3 | 0 | 0 | 14 | 1 | 6 | 11 | 6
CNC(=O)[C@@]12C[C@@H]1[C@@H](n1cnc3c(NC)nc(C#Cc4ccc(F)c(F)c4)nc31)[C@H](O)[C@@H]2O [Compound 5] | – | 4 | – | – | – | – | – | – | – | – | – | 0 | 9 | 0 | 0 | 4 | 0 | 0 | 4

From article PMC4032265 (PLoS ONE, 2014)
